Legend:
Assay type in all cases: in vivo
[1] = test system: Corn (cultivar: Hughes 5813); test: Test Example 2: corn seed treatment, amount of harvested grains; settings: grown 226 days
Procedure: Corn (cultivar: Hughes 5813) seeds were separately treated with 25 μg or 125 μg of compound (1b) for each seed. The amount of the compound required for the treatment was determined by calculation assuming 4,000 grains per kg of seeds. The seeds were coated using seed treatment machine HEGE11(produced by Hans-Ulrich Hege). All the seed treatments included Maxim XL (0.167 ounces/100 pounds), Thiram 42S (2.5 ounces/pound), and Cruiser (containing 0.25 mg/seed of thiamethoxam) and CF-Clear polymer at a concentration of 0.5 ounces/pound. The treated seeds were sown and grown for 226 days, and the corn plants were harvested to obtain grains. […] During the testing, no diseases were observed that affected the yield in the present compound-treated group and the non-treated group.

[2] = test system: corn seeds (cultivar: Kuromochi); test: Test Example 6: corn seed coating, low-temperature stress, fresh weight of above-ground part; settings: for Average fresh weight of above-ground part: low-temperature stress 3±2° C. 7 days, non-treated 1.18 g
Procedure: A blank slurry solution containing 5% (V/V) color coat red (Becker Underwood, Inc.), 5% (V/V) CF-Clear (Becker Underwood, Inc.) and 0.4% Maxim XL (Syngenta) was prepared. […] In a 50-ml centrifuge tube (manufactured by BD Japan), 0.48 ml of the slurry solution was placed for each 20 g of corn seeds (cultivar: Kuromochi) and stirred until the solution was dried, thereby coating the seeds. As a control, seeds were coated with the blank slurry solution and used for a non-treated group. Two treated corn seeds were sown in the culture soil (AISAI) in each plastic pot (55 mm in diameter×58 mm in height) and grown for 4 days under the following conditions: temperature, 27° C.; illuminance, 5,000 lux; day length, 16 hours. These were subjected to the test. The pots at day 4 after the sowing were placed in a phytotron under the following conditions in order to expose the plants to low-temperature stress for 7 days. Conditions: “temperature, 3±2° C.; day length, 16 hours; illuminance, about 5,000 lux; humidity, 35 to 80%” The plants were grown for another 7 days under the following conditions: temperature, 27° C.; humidity, 50 to 75%, illuminance, about 5,000 lux; day length, 16 hours. Then the fresh weight of the above-ground part of the plants was measured. The experiment was performed in four replications for each treatment condition and the average weight per individual was calculated.

[3] = test system: Corn (cultivar: PIONEER 120 31P41); test: Test Example 13: corn soil irrigation, low-temperature stress, growth and chlorophyll; settings: soil irrigation 20 ml, low-temperature stress 2 to 4° C. 5 days
Procedure: Corn seeds (cultivar: PIONEER 120 31P41) are sown in the culture soil (AISAI) in plastic pots (55 mm in diameter×58 mm in height) and grown for 7 days under the following conditions: temperature, 20 to 25° C.; humidity, 50 to 75%; illuminance, about 5,000 lux; day length, 16 hours. A DMSO solution of compound (1b) at a 1,000-fold concentration relative to each test concentration is diluted with distilled water to prepare a test soultion. Twenty (20) ml of the test solution obtained is applied around the base of each plant by soil irrigation, and then the plants are grown for two days under the following conditions: temperature, 27° C., humidity, 50 to 75%; illuminance, about 5,000 lux; day length 16 hours. This group is the present compound-treated group. The group to which 20 ml of a 0.1% aqueous DMSO solution is applied by soil irrigation in place of the DMSO solution of compound (1b) is used as the non-treated group. The plants subjected to the soil irrigation are grown for 5 days under the following conditions, to expose the plants to low-temperature stress: temperature, 2 to 4° C.; humidity, 40 to 70%, illuminance, about 5,000 lux; day length, 16 hours in a phytotron. After the exposure to low-temperature stress, the plants are grown for 4 days under the conditions of a temperature off20 to 25° C., a humidity of 50 to 75%, an illuminance of about 5,000 lux, and a day length of 16 hours. Then the plant weight and the length of true leaves are measured. Also, after the exposure to low-temperature stress, the plants are grown for 1 day under the conditions of a temperature of 20 to 25° C., a humidity of 50 to 75%, an illuminance of about 5,000 lux, and a day length of 16 hours. Then the chlorophyll fluorescence (Fv/Fm) is measured using a pulse modulation chlorophyll fluorometer (MAXI-IMAGING-PAM, WALZ). The chlorophyll content is measured using a chlorophyll gauge (SPAD-502; manufactured by KONICA MINOLTA).

For `CNC(=O)C(OC)c1ccccc1COc1cc(C)ccc1C` (racemic) [Compound (1b), N-methyl-2-[2-(2,5-dimethylphenoxy)methyl]phenyl-2-methoxyacetamide], the “increase in amount of the harvested grains as compared with the non-treated group” value ([1]; seeds treated with 25 μg per seed) was 11%, the “increase in amount of the harvested grains as compared with the non-treated group” value ([1]; seeds treated with 125 μg per seed) was 9% and the “Average fresh weight of above-ground part” value (“Average fresh weight” for short) ([2]; seed coating 10 g) was 1.33 g. The “Average fresh weight” value ([2]; seed coating 25 g) was 1.30 g, the “Average fresh weight” value ([2]; seed coating 50 g) was 1.29 g and the “Average fresh weight” value ([2]; seed coating) was 1.34 g. For the same molecule, the “fresh weight of the above-ground part as compared with the control group” value ([2]; plants exposed to low-temperature stress, 10 g to 50 g per 100 kg of seeds) was “an increase”, the “chlorophyll fluorescence (Fv/Fm) as compared with the non-treated group” value ([3]; then 1 day growth) was “increases” and the “length of true leaves as compared with the non-treated group” value ([3]; then 4 days growth) was “increased”. For the same molecule, the “plant weight as compared with the non-treated group” value ([3]; then 4 days growth) was “increased” and the “chlorophyll content as compared with the non-treated group” value ([3]; chlorophyll gauge SPAD-502) was “increases”.
